Measurements reported in BindingDB's records for doi:10.1021/jm050142+ (Universite De Montreal At Succursale Centre-Ville, 2005).

Target: Cathepsin D (Homo sapiens, UniProt P07339)
Experiment: Enzyme Inhibition Measurements
Settings: 25 °C

Chain of Cathepsin D (P07339 65-162 limits assumed): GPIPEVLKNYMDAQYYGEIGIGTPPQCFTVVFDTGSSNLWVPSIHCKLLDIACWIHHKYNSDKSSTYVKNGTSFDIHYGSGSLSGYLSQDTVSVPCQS
Chain of Cathepsin D (P07339 169-412 limits assumed): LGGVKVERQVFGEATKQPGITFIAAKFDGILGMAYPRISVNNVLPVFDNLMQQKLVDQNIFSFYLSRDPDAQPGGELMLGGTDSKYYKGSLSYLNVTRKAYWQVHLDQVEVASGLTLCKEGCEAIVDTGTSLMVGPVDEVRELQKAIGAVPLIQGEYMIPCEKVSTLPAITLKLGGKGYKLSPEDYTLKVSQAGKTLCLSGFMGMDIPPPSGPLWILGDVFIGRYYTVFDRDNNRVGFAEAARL

- IC50: 280 nM
Structure (SMILES): CCCCNC(=O)[C@@H](NC(=O)[C@@H]1OCC[C@H]1[C@H](O)[C@H](CC(C)C)NC(=O)[C@H](CCSC)NC(=O)[C@H](CC(C)C)NC(C)=O)C(C)C [(2S)-N-[(1S)-1-{[(1S,2S)-1-[(2R,3S)-2-{[(1S)-1-(butylcarbamoyl)-2-methylpropyl]carbamoyl}oxolan-3-yl]-1-hydroxy-4-methylpentan-2-yl]carbamoyl}-3-(methylsulfanyl)propyl]-2-acetamido-4-methylpentanamide]
